{
  "source": "patent US9254280B2",
  "about": "“Medical food for cognitive decline” (The Regents of the University of California, priority 2011, dated 2016)",
  "key": {"3×AD Tg mice [1]": {"test_system": "3×AD Tg mice", "assay": "Morris Water Maze, hidden platform, diet supplement study", "format": "in vivo", "from_the_text": "(§1) Fisetin, a natural flavonoid enriched in strawberries, is neuroprotective and can improve cognitive function in various animal models including aging mice and beta amyloid plaque accumulating transgenic mice. We have tested 0.6% DHA alone, 500 ppm fisetin alone and DHA+fisetin in combination delivered as a food supplement (in chow) to older 3×AD Tg mice with combined amyloid and tau pathology. The study ran from ˜9 months to 13-14 months of age."}, "3×AD Tg mice [2]": {"test_system": "3×AD Tg mice", "assay": "Probe test (platform removed, time in target quadrant)", "format": "in vivo", "settings": "60 seconds swim, dietary supplement", "from_the_text": "as §1\nFIG. 2. […] In this test the platform is removed, and the mice are allowed to swim for 60 seconds, while the time in the target quadrant is quantified."}},
  "data": [
    {"smiles": "O=c1c(O)c(-c2ccc(O)c(O)c2)oc2cc(O)ccc12", "note": "[fisetin, 2-(3,4-dihydroxyphenyl)-3,7-dihydroxy-4H-chromen-4-one]", "values": [
      {"measurement": "Cognitive deficits", "setting": "3×AD Tg mice [1]; 0.6% DHA, 500 ppm fisetin, alone or combined, in chow, older 3×AD Tg mice, ~9 to 13-14 months of age", "result": "not by DHA alone or fisetin alone"},
      {"measurement": "time (latency) to find a hidden platform with additional blocks of training", "setting": "3×AD Tg mice [1]; 12-13 month old 3×AD Tg mice on control bad (high safflower oil) diet", "result": "no improvement"},
      {"measurement": "retention in the probe test (time in the target quadrant)", "setting": "3×AD Tg mice [2]", "result": "also improved retention"}
    ]}
  ]
}
